Test results: patent US9399638B2, “Substituted pyridine compounds as CRAC modulators” (LUPIN LIMITED, priority 2012, dated 2016)

System: IL-2 secretion by Jurkat T cells
Experiment: Inhibition of IL-2 secretion
Format: cell-based
Settings: Homo sapiens; Jurkat T cells stimulated with PHA, 20 to 24 hours, IL-2 by ELISA
Experimental: The CRAC channel modulatory activity of the compounds were thus evaluated by measuring the secretion of IL-2 by antigen stimulated T-cells in vitro. Alternatively, such activity can also be evaluated by assay methods known to one skilled in the art.
Inhibition of IL-2 secretion: Jurkat T cells were seeded at a density of 0.5 to 1 million cells per well in RPMI medium. Test compounds from this invention were added to the cells at different concentrations. This was followed by the addition of PHA, a T cell mitogen after 10 minutes. The cells were then incubated for 20 to 24 hours in a CO2 incubator at 37° C. After incubation with the compounds, cells were centrifuged, the supernatant was collected and processed for ELISA to quantitate the amount of IL-2 secreted. A commercial ELISA kit (R&D Systems, Inc. Minneapolis, Minn., USA) was used to estimate the IL-2 concentrations. Amount of IL-2 secreted by cells stimulated with PHA was considered as a 100% maximal signal and the decrease in amount of IL-2 secreted by cells treated with the test compounds was expressed as percent inhibition of the maximal signal. The dose response data was analyzed using 4-parametric sigmoidal dose response (variable slope) curve—fit.

Compound `Cc1ncc(-c2nn(C)c(=O)o2)cc1-c1ccc(C(=O)Nc2c(F)cccc2F)n1C` [Example 62, N-(2,6-Difluorophenyl)-1-methyl-5-(2-methyl-5-(4-methyl-5-oxo-4,5-dihydro-1,3,4-oxadiazol-2-yl)pyridin-3-yl)-1H-pyrrole-2-carboxamide] has an IC50 of 100 to 1000 nM.
`CCc1ncc(-c2nn(C)c(=O)o2)cc1-c1ccc(C(=O)Nc2c(F)cccc2F)n1C` [Example 63, N-(2,6-Difluorophenyl)-5-(2-ethyl-5-(4-methyl-5-oxo-4,5-dihydro-1,3,4-oxadiazol-2-yl)pyridin-3-yl)-1-methyl-1H-pyrrole-2-carboxamide] was tested, and the IC50 was over 1000 nM.
For `CCc1cc(-c2ccc(NC(=O)c3c(F)cccc3F)cc2)nc(-c2nn(C)c(=O)o2)c1` [Example 64, N-(4-(4-Ethyl-6-(4-methyl-5-oxo-4,5-dihydro-1,3,4-oxadiazol-2-yl)pyridin-2-yl)phenyl)-2,6-difluorobenzamide], the IC50 was over 1000 nM.
In the case of `CCc1cc(-c2nn(C)c(=O)o2)cnc1-c1ccc(NC(=O)c2c(F)cccc2F)cc1` [Example 65, N-(4-(3-Ethyl-5-(4-methyl-5-oxo-4,5-dihydro-1,3,4-oxadiazol-2-yl)pyridin-2-yl)phenyl)-2,6-difluorobenzamide], the IC50 is reported as over 1000 nM.
Compound `Cn1nc(-c2cnc(-c3ccc(NC(=O)c4c(F)cccc4F)cc3)c(C3CC3)c2)oc1=O` [Example 66, N-(4-(3-Cyclopropyl-5-(4-methyl-5-oxo-4,5-dihydro-1,3,4-oxadiazol-2-yl)pyridin-2-yl)phenyl)-2,6-difluorobenzamide] has an IC50 of 100 to 1000 nM.
In the case of `Cn1nc(-c2cc(C3CC3)cnc2-c2ccc(NC(=O)c3c(F)cccc3F)cc2)oc1=O` [Example 67, N-(4-(5-Cyclopropyl-3-(4-methyl-5-oxo-4,5-dihydro-1,3,4-oxadiazol-2-yl)pyridin-2-yl)phenyl)-2,6-difluorobenzamide], the IC50 is reported as over 1000 nM.
With `CCc1ncc(-c2ccc(NC(=O)c3c(F)cccc3F)cc2)cc1-c1nn(C)c(=O)o1` [Example 68, N-(4-(6-Ethyl-5-(4-methyl-5-oxo-4,5-dihydro-1,3,4-oxadiazol-2-yl)pyridin-3-yl)phenyl)-2,6-difluorobenzamide] the IC50 was over 1000 nM.
